{
  "source": "patent EP0848611B1",
  "about": "“TACRINE PATCH” (HEXAL AG, priority 1995, dated 1997)",
  "origin": "cited, not measured here",
  "key": {"[1]": {"details": "in vivo"}},
  "data": [
    {"smiles": "Nc1c2c(nc3ccccc13)CCCC2", "note": "[Tacrin, 1,2,3,4-Tetrahydro-9-acridinamin]", "values": [
      {"measurement": "Bioverfügbarkeit", "setting": "[1]; human", "result": "10-30%"},
      {"measurement": "Halbwertszeit", "setting": "[1]; human", "result": "1,5-3,5 h"},
      {"measurement": "therapeutischer Blutspiegel", "setting": "[1]", "result": "5 to 70", "unit": "ng/mL"},
      {"measurement": "Anstieg der ALT-Werte (Alaninaminotransferase)", "setting": "patients", "result": "≤ 20 fachen der oberen normalen Grenze"},
      {"measurement": "hepatotoxischer Effekt tritt auf", "setting": "share of patients", "result": "etwa der Hälfte der Patienten"}
    ]}
  ]
}
